From patent US20260226084A1, “DUAL RAF AND TUBULIN INHIBITORS AND METHODS OF USE THEREOF” (Deciphera Pharmaceuticals, LLC, priority 2023, published 2026)
Read-outs that look alike come from different tables or passages of the source.

How the values were obtained:
[1] = molecular target: T1, B-Raf kinase (SEQ ID NO: 1) (Homo sapiens, UniProt P15056); assay: Biochemical Assay for B-Raf (coupled pyruvate kinase/lactate dehydrogenase assay)
T1 construct: GST (N); purchased Sigma

Porcine Brain Tubulin = molecular target: T2, Porcine Brain Tubulin (Sus scrofa, UniProt P02550+P02554); assay: Biochemical Tubulin Polymerization Assay; details: Table 3; Tubulin Biochemical assay; read-out: Tubulin Biochem (IC50 class)
T2 construct: Porcine Brain Tubulin (T240); purchased Cytoskeleton, Inc T240; BK011P; host or cells: porcine brain (tissue-purified)

[2] = system: tubulin polymerization in HCT-116 cells; assay: Cellular Tubulin Polymerization Assay; assay type: cell-based; details: Homo sapiens, Table 3, read-out: Tubulin Cellular (IC50 class)
Procedure: HCT-116 cells (catalog #CCL-247) are obtained from the American Type Culture Collect (ATCC, Manassas, VA). Briefly, cells are grown in McCoy's 5A supplemented with 10% characterized fetal bovine serum (Invitrogen, Carlsbad, CA) and 1% Penicillin/Streptomycin/L-Glutamine at 37° C., 5% CO2, and 95% humidity. Cells are expanded until reaching 70-95% confluency at which point they are subcultured or harvested for assay use. 450000 cells are added per well in 1500 μL complete growth medium in a tissue culture treated, 12-well plate. Plates are incubated for 18 to 24 h at 37° C., 5% CO2, and 95% humidity. At the end of the incubation, 2000 μL of base culture media is added to each well, followed by a serial dilution of compound. Plates are incubated for an additional 1 h at 37° C., 5% CO2, and 95% humidity. Lysates are generated by the addition of 100 μL Lysis and Microtubule Stabilization Buffer 1 (LMS01, Cytoskeleton Inc, Denver, CO) supplemented with GTP (BST06, Cytoskeleton Inc), ATP (BSA04, Cytoskeleton Inc), and Protease Inhibitor Cocktail Stock (PIC02, Cytoskeleton Inc). Cells are scraped off wells using a rubber cell scraper and collected in a clean 96-well plate. Lysates are centrifuged at 1000×g, 37° C. for 10 min and supernatant fraction is placed into an additional 96-well plate. The remaining pellet fraction is reconstituted in 100 μL LMS01 buffer and sonicated for 10 min. Pellet and Supernatant fractions are probed for α-tubulin via western blot analysis on the Jess System or equivalent (Bio-techne, Minneapolis, MN). Data is analyzed using Prism software (Graphpad, San Diego, CA) to calculate IC50values.

[3] = 1 mM ATP, read-out: BRAF (inhibition of biochemical activity, IC50)
[4] = Table 3, read-out: BRAF (IC50 class)

T1 sequence (P15056 416-766): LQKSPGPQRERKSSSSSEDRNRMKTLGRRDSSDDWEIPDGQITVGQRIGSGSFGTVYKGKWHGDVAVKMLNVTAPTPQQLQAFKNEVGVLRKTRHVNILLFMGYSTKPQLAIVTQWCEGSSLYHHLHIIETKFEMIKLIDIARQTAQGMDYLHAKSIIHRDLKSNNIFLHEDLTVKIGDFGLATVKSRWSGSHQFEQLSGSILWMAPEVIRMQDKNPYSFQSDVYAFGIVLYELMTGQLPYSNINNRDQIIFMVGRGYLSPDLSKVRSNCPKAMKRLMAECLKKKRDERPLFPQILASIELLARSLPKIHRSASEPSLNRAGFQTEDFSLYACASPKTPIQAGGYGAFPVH
T2 sequence (P02550 whole entry): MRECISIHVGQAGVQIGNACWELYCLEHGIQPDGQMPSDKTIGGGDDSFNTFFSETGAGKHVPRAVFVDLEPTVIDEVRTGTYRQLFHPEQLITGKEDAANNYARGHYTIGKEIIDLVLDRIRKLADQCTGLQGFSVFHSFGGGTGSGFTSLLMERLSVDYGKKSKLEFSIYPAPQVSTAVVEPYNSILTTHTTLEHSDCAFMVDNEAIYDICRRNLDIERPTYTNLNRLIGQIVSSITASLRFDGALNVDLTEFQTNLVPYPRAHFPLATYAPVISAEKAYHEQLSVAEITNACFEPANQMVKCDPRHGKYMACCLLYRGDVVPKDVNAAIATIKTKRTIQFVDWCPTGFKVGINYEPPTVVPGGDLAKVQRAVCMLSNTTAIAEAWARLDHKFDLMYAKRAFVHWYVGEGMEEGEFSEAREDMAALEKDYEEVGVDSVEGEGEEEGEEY
T2 sequence (P02554 whole entry): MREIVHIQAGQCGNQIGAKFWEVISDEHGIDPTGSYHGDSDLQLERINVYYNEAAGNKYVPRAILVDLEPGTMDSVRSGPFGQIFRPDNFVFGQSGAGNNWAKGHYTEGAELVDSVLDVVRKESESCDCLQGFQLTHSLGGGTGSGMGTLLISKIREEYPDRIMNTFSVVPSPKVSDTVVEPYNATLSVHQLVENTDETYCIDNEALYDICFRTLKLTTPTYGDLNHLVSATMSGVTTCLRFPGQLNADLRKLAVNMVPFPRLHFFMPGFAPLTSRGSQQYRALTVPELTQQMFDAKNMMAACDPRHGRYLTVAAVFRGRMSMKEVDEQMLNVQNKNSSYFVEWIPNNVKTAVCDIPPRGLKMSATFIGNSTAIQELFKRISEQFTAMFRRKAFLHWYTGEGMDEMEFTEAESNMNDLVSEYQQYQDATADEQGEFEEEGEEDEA

Row | Structure (SMILES) | IC50 [1, 3] [nM] | IC50 [1, 4] [nM] | IC50 (Porcine Brain Tubulin) [nM] | IC50 [2] [nM]
1 | Cc1ccc(NC(=O)c2cc(C(F)(F)F)cnn2)cc1-c1ccnc(-c2ccnc(NC(=O)C3CC3)c2)c1 [Example 67] | < 100 | < 100 | < 3000 | < 100
2 | Cc1ccc(NC(=O)c2cnc(C(F)(F)F)nc2)cc1-c1ccnc(-c2ccnc(NC(=O)C3CC3)c2)c1 [Example 17] | 100 to 500 | 100 to 500 | 3000 to 20000 | 500 to 1000
3 | Cc1ccc(NC(=O)c2cc(C3CC3)cnn2)cc1-c1ccnc(-c2ccnc(NC(=O)C3CC3)c2)c1 [Example 43] | < 100 | < 100 | 3000 to 20000 | < 100
4 | Cc1ccc(NC(=O)c2cc(C(C)(F)F)cnn2)cc1-c1ccnc(-c2ccnc(NC(=O)C3CC3)c2)c1 [Example 57] | < 100 | < 100 | < 3000 | 1000 to 10000
5 | Cc1ccc(NC(=O)c2cc(C#N)cnn2)cc1-c1ccnc(-c2ccnc(NC(=O)C3CC3)c2)c1 [Example 96, 5-cyano-N-(3-(2′-(cyclopropanecarboxamido)-[2,4′-bipyridin]-4-yl)-4-methylphenyl)pyridazine-3-carboxamide] | < 100 | < 100 | 3000 to 20000 | < 100
